Results from publication PMC3596113 (Clinical cancer research : an official journal of the …, 2012).
Where two headings read alike, the source gives them in different places. Marks after values point to notes of the source that are not given here.

Legend:
[1] = system: phosphorylation of histone H2Ax in leukemia blast cells; experiment: H2Ax phosphorylation in marrow blasts; assay type: in vivo, human
[2] = system: relapsed and refractory acute leukemias
Chk2 = details: cited from earlier work
CDK1 = details: cited from earlier work
[3] = AML patient 49, dose level 1, Ref
[4] = AML patient 73, dose level 5, Relapse 66 mo
[5] = Total, 24 adults, all dose levels
[6] = dose level 1, 10 mg/m^2 (n = 3) + cytarabine
[7] = dose level 2, 20 mg/m^2 (n = 3) + cytarabine
[8] = dose level 4, 56 mg/m^2 (n = 6) + cytarabine
[9] = dose level 5, 140 mg (n = 6) + cytarabine

Cn1cc(-c2cnn3c(N)c(Br)c([C@@H]4CCCNC4)nc23)cn1 [SCH 900776]
Sets of samples with enhanced H2Ax phosphorylation ([1]; patients treated with 40 mg/m^2 SCH 900776 or higher): 3 of 5
Response rate (CR plus CRi) ([2]; 1 CRi of 6 patients at SCH 900776 doses ≤ 20 mg/m^2): 17%
CR/CRi rate ([2]; 2 of 10 patients with AML with adverse cytogenetics): 20%
CR/CRi rate ([2]; 2 of 10 patients with a complex karyotype): 20%
CR/CRi rate ([2]; 3 of 8 with secondary AML): 38%
CR/CRi rate ([2]; 4/8 with relapsed AML): 50%
Response rate (CR plus CRi) ([2]; 7 (5 CR, 2 CRi) of 18 patients at dose level 3 (40 mg/m^2) or higher): 39%
CR/CRi rate in patients with AML ([2]; 8 of 21 patients with AML): 38%
Overall response rate (CR plus CRi) ([2]; 8 of 24 patients, all dose levels): 33%
Complete tumor clearance (CTC) by day 14, rate ([2]; 12 of 24 patients, all dose levels): 50%
DFS (mo) ([2]; AML patient 25, dose level 3, Relapse 7 mo): 25.2+ mo
DFS (mo) [2, 3]: 2.0 mo
Response (CR/CRi) [2, 3]: CRi
DFS (mo) ([2]; AML patient 52, dose level 3, primary Ref): 2.2 mo
DFS (mo) ([2]; AML patient 55, dose level 3, primary Ref): 11.3 mo
DFS (mo) ([2]; AML patient 60, dose level 4, Relapse 8 mo): 22.4+ mo
DFS (mo) ([2]; AML patient 61, dose level 5, Relapse 19 mo): 18.1+ mo
DFS (mo) ([2]; AML patient 70, dose level 4, primary Ref): 9.7 mo
DFS (mo) [2, 4]: 0.2 mo
Response (CR/CRi) [2, 4]: CRi
Day 14 CTC (patients) [2, 5]: 12
Response (CR/CRi) (patients) [2, 5]: 8 (5/3): all AML
Response in pts with prior cytarabine ([2]; Total, 24 adults, high = prior 2 g/m^2/72 h infusion or high-dose cytarabine): 7 (6 high)
Median duration of response ([2]; all patients with CR/CRi, range 0.2–27+): 10 months
Responders remaining alive ([2]; as of June 1, 2012, at 19+ to 30.5+ months): 5 of the 8
Response rate (CR plus CRi) ([2]; at least 2 of 6 in each of dose levels 3 through 5): ≥ 33%
Complete tumor clearance (CTC) by day 14, rate ([2]; at least 3 of 6 per level beginning at dose level 3 (40 mg/m^2)): ≥ 50%
Day 14 CTC (patients) [2, 6]: 1
Response (CR/CRi) (patients) [2, 6]: 1 (0/1): AML
Response in pts with prior cytarabine ([2]; dose level 1, 10 mg/m^2 (n = 3), high = prior 2 g/m^2/72 h infusion or high-dose cytarabine): 1 (high) ^a
Response in pts with prior cytarabine ([2]; dose level 2, 20 mg/m^2 (n = 3)): 0
Day 14 CTC (patients) [2, 7]: 1
Response (CR/CRi) (patients) [2, 7]: 0 (0/0)
Day 14 CTC (patients) ([2]; dose level 3, 40 mg/m^2 (n = 6) + cytarabine): 4
Response in pts with prior cytarabine ([2]; dose level 3, 40 mg/m^2 (n = 6), high = prior 2 g/m^2/72 h infusion or high-dose cytarabine): 2 (both high)
Day 14 CTC (patients) [2, 8]: 3
Response (CR/CRi) (patients) [2, 8]: 2 (2/0): both AML
Response in pts with prior cytarabine ([2]; dose level 4, 56 mg/m^2 (n = 6), high = prior 2 g/m^2/72 h infusion or high-dose cytarabine): 2 (1 high)
Day 14 CTC (patients) [2, 9]: 3
Response (CR/CRi) (patients) [2, 9]: 2 (1/1): both AML
Response in pts with prior cytarabine ([2]; dose level 5, 140 mg (n = 6), high = prior 2 g/m^2/72 h infusion or high-dose cytarabine): 2 (both high)
CR/CRi in patients who had day 14 CTC ([2]; human, in vivo): 8 of the 12
CR/CRi in patients who had residual leukemia on day 14 ([2]; human, in vivo): none
CR/CRi ([2]; patients with FLT3-ITD AML): none
Effect on Chk2 (Chk2): without substantial effect
Effect on CDK1 (CDK1): without substantial effect

Nc1ccn([C@@H]2O[C@H](CO)[C@@H](O)[C@@H]2O)c(=O)n1 [cytarabine, reference compound]
Samples with increase in H2Ax phosphorylation ([1]; marrow blasts, after 24 hours of continuous cytarabine infusion, before SCH 900776 (day 2)): 2 of 10
